The source of these data is ChEMBL document CHEMBL1201862, “PubChem BioAssay data set” (2004).

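Grown in 96-well plates, cells were treated for 48 hours with each compound at five concentrations. Insufficient inhibition: endpoint recorded as highest concentration tested. GI50 is the concentration that inhibits growth by half.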 Activity calls are given as the source filed them. Rule as the data show it: active = GI50 up to about 1.1 µM and inactive = higher. Bounds are passed on as bounds.

Holding throughout (assay): NCI anticancer screen, dose series, 48 h
Test [1] relates to KM-20L2.
The subject of test [2] is HOP-92.
Test [3] concerns IGROV-1.
Test [4] relates to HCC 2998.
Test [5] relates to HT-29.
Test [6] has as its system COLO 205.
Test [7] has as its system SNB-19.
Test [8] deals with SF-539.
The test system of test [9] is M19-MEL.
The test system of test [10] is DMS-273.
Test [11] concerns OVCAR-8.
Test [12] concerns NCI-H226.
Test [13] concerns DLD-1.
Test [14] concerns TK-10.
The subject of test [15] is T47D.
Test [16] deals with MDA-MB-435.
For test [17], the system named is BT-549.
The subject of test [18] is SR.
In test [19] the test system is Hs-578T.
In test [20] the test system is MDA-N.

For `C=C1C(=O)C[C@@]23CCC[C@@]12CC(O)C3` (stereo not given in full), the GI50 in test [1] was 21.8 µM (inactive); in [2], 19.3 µM (inactive); in test [3], 3.93 µM (inactive); in test [4], > 46.2 µM (inactive); in test [5], 14.6 µM (inactive); in [6] it was 21.3 µM (inactive). Besides, the GI50 in test [7] was 85.7 µM (inactive); in test [8] it was 25.6 µM (inactive); in [9] it was 24.8 µM (inactive); in [10], 17.3 µM (inactive); in [11] it was 32.7 µM (inactive); in [12], 21.2 µM (inactive). In [13], the GI50 is 18.6 µM (inactive).
For `CCCCCC/C(CC(=O)CCC(=O)NCCc1ccccc1)=N\NC(=O)c1ccc2ccccc2c1O`, the GI50 in [1] was 35.1 µM (inactive); in test [2] it was 33 µM (inactive); in test [3] it was 33.7 µM (inactive); in [4], 53.3 µM (inactive); in test [5], 55.3 µM (inactive); in test [6], 54.2 µM (inactive). Further, the GI50 in test [7] is 59.8 µM (inactive); in test [9], 23.3 µM (inactive); in test [11], 29.4 µM (inactive); in test [14] it was 64.7 µM (inactive); in test [12], 55 µM (inactive); in test [13], 36.9 µM (inactive).
`O=C(O)c1nc2ccc(C(F)(F)F)cc2[nH]c1=O`: the GI50 in test [15], in [2], in test [3], in test [16], in test [4] and in [17] was > 100 µM (inactive) in each case. Further, the GI50 in test [5], in test [18], in test [6], in test [7], in [19] and in test [8] was > 100 µM (inactive) each time. Also, the GI50 in test [20], in [11], in [14] and in test [12] was > 100 µM (inactive) in each case.
Regarding `CCOC(=O)c1ccc(N[C@@H]2c3cc4c(cc3C(c3cc(OC)c(O)c(OC)c3)[C@H]3C(=O)OCC32)OCO4)cc1O` (stereo not given in full), the GI50 in test [1] is 2.2 µM (inactive); in [2], 1.19 µM (inactive); in test [3], 2.68 µM (inactive); in [4] it was 1.92 µM (inactive); in test [5], 0.546 µM (active); in test [6], 1.18 µM (inactive). Moreover, the GI50 in test [7] is 0.652 µM (active); in [8] it was 0.685 µM (active); in test [9], 0.893 µM (active); in test [10] it was 0.299 µM (active); in test [11], 1.77 µM (inactive); in [12], 0.256 µM (active). Also, the GI50 in test [13] was 1.44 µM (inactive).
Take `COc1ccc(/C=N/NC(=O)NCCCN(C)C)cc1`: the GI50 in test [3], in test [5], in test [7], in test [8], in test [10] and in test [11] was > 100 µM (inactive) each time. Besides, the GI50 in test [14], in [12] and in test [13] was > 100 µM (inactive) in each case.
On to `[N-]=[N+]=CC(=O)c1ccccc1C#CCCc1ccccc1`, for which the GI50 was 23.6 µM (inactive) in [1]; 18.9 µM (inactive) in test [2]; 36.9 µM (inactive) in [3]; 31.8 µM (inactive) in [4]; 16.6 µM (inactive) in test [5]; 28.2 µM (inactive) in test [18]. The GI50 in test [6] was 32 µM (inactive); in [7] it was 38.3 µM (inactive); in test [8], 36.6 µM (inactive); in test [10] it was 23.2 µM (inactive); in test [11], 27.8 µM (inactive); in [14], 72.8 µM (inactive). In addition, the figures for the GI50 in [12] and in [13] were 29.4 µM (inactive) and 39.4 µM (inactive), respectively.
In the case of `CCN(CC)c1ccc2c(c1)Oc1ccc(N(C(C)=O)c3ccccc3)cc1C21OC(=O)c2ccccc21` (stereo not given), the GI50 in test [15] is 5.32 µM (inactive); in [2], > 67.3 µM (inactive); in test [3] it was > 100 µM (inactive); in [16], 21 µM (inactive); in test [4], > 100 µM (inactive); in test [17], 98.2 µM (inactive). The GI50 in [5] was 32.3 µM (inactive); in test [18], 23.3 µM (inactive); in [6] it was > 64.1 µM (inactive); in test [7] it was > 100 µM (inactive); in test [19] it was 58.3 µM (inactive); in test [8] it was > 100 µM (inactive). Further, the GI50 is 32.6 µM (inactive) in test [20], > 75.5 µM (inactive) in test [11], > 100 µM (inactive) in test [14] and > 100 µM (inactive) in test [12].
As to `[N-]=[N+]=CC(=O)OCC(N)C(=O)O` (stereo not given), the GI50 in test [1] was 0.157 µM (active); in test [2] it was 82 µM (inactive); in test [3], 1.15 µM (inactive); in [4], 0.362 µM (active); in test [5], 0.177 µM (active); in test [6] it was 0.269 µM (active). For the same compound, the GI50 is 2.88 µM (inactive) in [7]; 0.13 µM (active) in test [8]; 1.41 µM (inactive) in test [9]; 0.245 µM (active) in test [10]; 1.32 µM (inactive) in [11]; 625 µM (inactive) in test [12]. In addition, the GI50 in test [13] was 0.344 µM (active).
As for `CCCCCCCCCCC(C)CCCCCCC(=O)O` (stereo not given), the GI50 in test [2], in [3], in [4], in test [5], in test [18] and in test [6] was > 100 µM (inactive) in each case. Also, the GI50 in test [7], in test [8], in test [9], in [10], in test [11] and in test [14] was > 100 µM (inactive) each time. Moreover, the GI50 in [12] and in test [13] was > 100 µM (inactive) in each case.
Consider `CC1(C)CCC2(C(=O)O)C(O)CC3(C)C(=CCC4C5(C)CCC(OC6OCC(O)C(O)C6OC6OCC(O)C(O)C6OC6OCC(O)C(OC7OC(CO)C(O)C(O)C7O)C6O)C(C)(C)C5CCC43C)C2C1` (stereo not given), for which the GI50 in [15] was 97.1 µM (inactive); in test [2], 29.4 µM (inactive); in test [3], > 100 µM (inactive); in test [16] it was 28.4 µM (inactive); in [4], 40.8 µM (inactive); in test [17], 29.7 µM (inactive). Besides, the GI50 in test [5] is > 100 µM (inactive); in test [18] it was 4.21 µM (inactive); in test [6], > 100 µM (inactive); in test [7], 20 µM (inactive); in test [19] it was 28.1 µM (inactive); in test [8], > 100 µM (inactive). The GI50 in test [20] was 20.8 µM (inactive); in test [11], > 100 µM (inactive); in test [14], > 100 µM (inactive); in test [12] it was 23.7 µM (inactive).
As for `CCCC(=O)Nc1cc(/C=C/C(=O)N2CC(CCl)c3c2cc(OCc2ccccc2)c2[nH]cc(C)c32)n(C)c1` (stereo not given), the GI50 in [15] is 0.225 µM (active); in test [2] it was 0.0698 µM (active); in test [3] it was 0.0211 µM (active); in test [16] it was 0.251 µM (active); in test [4], 0.0253 µM (active); in test [17], 0.159 µM (active). The GI50 in test [5] is 0.0687 µM (active); in test [18], 0.00444 µM (active); in [6], 0.188 µM (active); in test [7], 0.337 µM (active); in test [19] it was 0.14 µM (active); in [8] it was 0.0472 µM (active). For the same compound, the GI50 in test [20] was 0.249 µM (active); in [11], 0.0221 µM (active); in [14], 0.533 µM (active); in test [12], 0.107 µM (active).
For the compound `O=C1C2=C(c3ccccc31)C(c1ccc(Cl)cc1)NC(S)=N2` (stereo not given), the GI50 in [1] was 20.4 µM (inactive); in [2], 16 µM (inactive); in test [3], 19 µM (inactive); in [5], 33.8 µM (inactive); in test [6], 25.5 µM (inactive); in test [7], 26.3 µM (inactive). For the same compound, the GI50 in test [8] is 15.7 µM (inactive); in [9] it was 20 µM (inactive); in test [10], 20.3 µM (inactive); in [11], 20 µM (inactive); in test [14], 22.8 µM (inactive); in [12] it was 16.9 µM (inactive). For the same compound, the GI50 in test [13] was 22.8 µM (inactive).
For the compound `CC1(C)CCc2cc3c(cc2O1)OC(C)(C)CC3=O`, the GI50 in test [2] is 17.5 µM (inactive); in test [3], > 100 µM (inactive); in [5], 35.6 µM (inactive); in [18], 57.5 µM (inactive); in test [6], > 100 µM (inactive); in test [8], > 100 µM (inactive). For the same compound, the GI50 in test [9] was 88.7 µM (inactive); in test [10], 71.3 µM (inactive); in test [11] it was > 100 µM (inactive); in [12] it was 34.2 µM (inactive); in [13] it was 97.5 µM (inactive).
On to `CN(C)CCCNc1ccc2nnn3c4ccc(O)cc4c(=O)c1c23`, for which the GI50 in test [15] was 21 µM (inactive); in test [1], 3.3 µM (inactive); in test [2] it was 4.26 µM (inactive); in test [3] it was 1.92 µM (inactive); in test [16], 8.22 µM (inactive); in test [4], 1.89 µM (inactive). The GI50 in [17] is 18.8 µM (inactive); in test [5], 2.74 µM (inactive); in test [18], 0.193 µM (active); in [6] it was 2.51 µM (inactive); in test [7], 6.61 µM (inactive); in [19], 1.41 µM (inactive). For the same compound, the GI50 in test [8] is 6.44 µM (inactive); in test [9], 12.6 µM (inactive); in [20], 6.52 µM (inactive); in test [11] it was 1.5 µM (inactive); in test [14] it was 4.67 µM (inactive); in test [12], 2.51 µM (inactive). Further, in test [13], the GI50 is 1.42 µM (inactive).
